Assay results from publication PMC4585798 (Scientific Reports, 2015).
No end group written: not given here.

How the values were obtained:
[1] = target: hα9α10[L7H] nAChR (Homo sapiens, UniProt Q9GZZ6+Q9UGM1, L31H); test: cell-based; assay type: cell-based
[2] = target: the molecule itself; test: mass spectrometry before and after reduction and alkylation

Sequence of hα9α10[L7H] nAChR (Q9UGM1 26-479 limits assumed, stated change not applied): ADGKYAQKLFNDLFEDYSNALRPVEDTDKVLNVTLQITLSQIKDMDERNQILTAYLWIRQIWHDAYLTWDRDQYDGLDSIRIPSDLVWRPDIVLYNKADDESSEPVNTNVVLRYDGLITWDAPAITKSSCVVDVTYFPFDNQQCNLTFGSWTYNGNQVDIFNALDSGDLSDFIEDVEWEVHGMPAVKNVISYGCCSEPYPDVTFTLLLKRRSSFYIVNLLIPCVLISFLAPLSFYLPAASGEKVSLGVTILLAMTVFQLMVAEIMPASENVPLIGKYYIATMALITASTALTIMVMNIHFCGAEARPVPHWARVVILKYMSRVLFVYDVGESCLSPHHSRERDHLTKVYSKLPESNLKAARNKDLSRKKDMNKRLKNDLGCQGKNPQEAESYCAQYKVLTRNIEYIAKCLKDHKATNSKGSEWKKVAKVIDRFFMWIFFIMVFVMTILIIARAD
Sequence of hα9α10[L7H] nAChR (Q9GZZ6 25-450 L31H limits assumed, stated change not applied): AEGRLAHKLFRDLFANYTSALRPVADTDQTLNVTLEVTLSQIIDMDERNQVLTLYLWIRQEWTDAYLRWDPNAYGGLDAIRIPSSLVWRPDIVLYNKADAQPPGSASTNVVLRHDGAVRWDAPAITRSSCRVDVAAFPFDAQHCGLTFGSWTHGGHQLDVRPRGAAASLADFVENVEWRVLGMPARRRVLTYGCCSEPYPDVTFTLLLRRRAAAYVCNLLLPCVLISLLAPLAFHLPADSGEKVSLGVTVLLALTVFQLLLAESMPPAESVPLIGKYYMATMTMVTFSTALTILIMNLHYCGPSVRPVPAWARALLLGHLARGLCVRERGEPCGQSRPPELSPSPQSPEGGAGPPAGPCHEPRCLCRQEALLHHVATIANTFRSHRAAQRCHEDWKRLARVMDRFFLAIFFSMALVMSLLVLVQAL

Molecule	effect of α10 L7H mutation on inhibitory activity (in words) [1]	stoichiometry N [2]
Vc1.1 [reference compound]	not affected by this mutation	–
DVHRPCQSVRPGRVWGKCCLTRLCSTMCCARADCTCVYHTWRGHGCSCVM (ends and bridges not checked; cysteine pairing not given here) [αD-conotoxin GeXXA]	–	2
